{
  "source": "patent US20240392250A1",
  "about": "“HIGH-THROUGHPUT SELECTION AND FABRICATION OF BIOMATERIAL-ENCAPSULATED CELL MASS AND USES THEREOF” (BioArchitec Group Limited, priority 2022, published 2024)",
  "tested_on": "HT-29 spheroids encapsulated BECM",
  "assay": "Drug response of HT-29 spheroid BECMs by CELLTITER GLO 3D cell viability assay",
  "type": "cell-based",
  "settings": "biomaterial-encapsulated HT-29 cancer cell spheroids; Osimertinib 0, 2, 4 and 8 μM; 72 hrs at 37° C.; n=10; FIG. 7",
  "from_the_text": "Commercially available 3D cell viability assay, CELLTITER GLO (Promega Corp.), was used to determine the cell viability of the BECMs.",
  "data": [
    {"compound": "C=CC(=O)Nc1cc(Nc2nccc(-c3cn(C)c4ccccc34)n2)c(OC)cc1N(C)CCN(C)C", "note": "[Osimertinib]", "values": [
      {"measurement": "cell viability of the BECMs (dose-response)", "value": "a typical 3D cell culture viability dose-response was obtained"}
    ]}
  ]
}
